Patent publication US11192849B2, “Compounds, compositions, and methods for modulating ferroptosis and treating excitotoxic disorders” (THE TRUSTEES OF COLUMBIA UNIVERSITY IN THE CITY OF NEW YORK, priority 2013, dated 2021)

Columns and labels:
[1] = 2,2-Diphenyl-1-picrylhydrazyl (DPPH) cell-free antioxidant assay; format: biochemical; conditions: test compound 0.05 mM, 30 minutes
Protocol: The stable radical DPPH (Blois, 1958) was dissolved in methanol to a final working concentration of 0.05 mM. This was prepared as follows. First, a 100× stock concentration (5 mM) was prepared by dissolving 3.9 mg DPPH in 2 mL methanol. Then, for 25 mL of 0.05 mM final working solution, 250 μL of the 5 mM solution was added to 24.75 mL of methanol. 1 mL of DPPH solution was added to a small volume (<5 μL) each test compound dissolved in DMSO. The final concentration of each test compound was 0.05 mM. Samples were inverted several times and allowed to incubate at room temperature for 30 minutes. Samples were then aliquoted to white 96-well solid-bottom dishes (Corning) and absorbance at 517 nm was recorded using a TECAN M200 plate reader. All values were normalized to background (methanol only). The experiment was repeated three times and the data was averaged.
In parallel with the above cell-based assay, a 2,2-diphenyl-1-picrylhydrazyl (DPPH) assay was used to examine the ability of each analog to scavenge free radicals in a cell-free in vitro solution—a test of intrinsic antioxidant capacity. […] Redox active analogs scavenged the DPPH radical by 60-90% within 30 minutes (FIG. 18a).

[2] = tested on: HT-1080 cells; experiment: Effect of Fer-1 on the lethality of various compounds in HT-1080 cells; format: cell-based, human; conditions: resynthesized Fer-1 (0.5 μM)
Protocol: The comparative analysis of the lethal effects of various molecules was conducted as above for the inhibitors experiment with the following modifications. All lethal molecules were tested in a ten point, two-fold dilution series. Inhibitors were made in media at 1× final concentration. The growth media was removed from the plates, and 36 μL media+inhibitor (or DMSO) was added back to the plate+4 μL from the 10× lethal stock plate. Cell viability and modulatory effects (Me) were computed as above, to obtain the maximum deviation from BExp produced by each modulator across the different lethal small molecule concentrations.

[3] = tested on: ERK phosphorylation; experiment: ERK phosphorylation Western blot in HT-1080 cells; format: cell-based, human
Protocol: Cells were trypsinized, pelleted, and washed once in PBS. Cells were lysed for 20 minutes in buffer containing: 50 mM HEPES pH 7.4, 40 mM NaCl, 2 mM EDTA, 0.5% Triton X-100, 1.5 mM sodium orthovanadate, 50 mM NaF, 10 mM sodium pyrophosphate, 10 mM sodium ß-glycerophosphate, and protease inhibitor tablet (Roche, Nutley, N.J.). Unlysed cells and debris were pelleted for 10 minutes at 10,000 rpm in a benchtop microcentrifuge at 4° C., and the supernatant was removed and mixed with 5×SDS loading buffer. Samples were separated by SDS-polyacrylamide gel electrophoresis. Western transfer was performed using the iBlot system (Invitrogen). Membrane was blocked for 1 hour in Licor Odyssey Blocking Buffer (LI-COR) and incubated in primary antibody overnight at 4° C. Following three 5-minute washes in Tris-buffered saline (pH 7.4) with 1% Tween-20 (TBS-T), membrane was incubated with secondary antibodies for 45 minutes in the dark. The membrane was washed again in TBST for three 5-minute washes with protection from light and scanned using the Odyssey Imaging System (LI-COR). Antibodies used were as follows: rabbit anti-phospho p42/44 MAPK (Cell Signaling Technology, #9101) and rabbit anti-p42/44 MAPK (Cell Signaling Technology, #9102). The secondary antibody was IR dye 800CW goat anti-rabbit IgG (LI-COR).

[4] = tested on: rat organotypic hippocampal slice culture (OHSC); experiment: Glutamate excitotoxic injury in organotypic hippocampal slice cultures (PI uptake); format: cell-based; conditions: 5 mM L-glutamate 3 hours; Fer-1 2 μM, CPX 5 μM, MK-801 10 μM; 24 hours
Protocol: OHSCs were cultured as previously described (Morrison et al., 2002) with approval from Columbia University's Institutional Animal Care and Use Committee (IACUC). Briefly, Sprague Dawley rat pups (P8-P10) were rapidly decapitated, and the hippocampus placed in ice-cold Gey's balanced salt solution (Sigma). 400 μm thick sections were cut using a Mcllwain tissue chopper and immediately plated on Millicell cell culture inserts (Millipore, Billerica, Mass.) in Neurobasal (Invitrogen) media supplemented with B27 (1×, Invitrogen), GlutaMAX (1 mM, Invitrogen), and D-glucose (4.5 mg/mL, Sigma) at 37° C. and 5% CO2. After 2 days in vitro (DIV), the media was changed to medium containing serum comprised of 50% DMEM (Sigma), 25% heat-inactivated horse serum (Sigma), 25% Hank's balanced salt solution (Sigma), GlutaMAX (1 mM, Invitrogen), and D-glucose (4.5 mg/mL, Sigma). Medium was changed every 2-3 days.
After 10-14 DIV, OBSCs were exposed to an excitotoxic injury consisting of a 3 hour exposure to 5 mM L-glutamate in SFM (Morrison et al., 2002). […] After the 3 hour exposure, the cultures were placed in fresh serum free media (SFM) containing 75% DMEM, 25% Hank's balanced salt solution, GlutaMAX (1 mM), D-glucose (4.5 mg/mL) until cell death was quantified at 24 hours. […]
Quantification of cell death has been described previously (Cater et al., 2007; Morrison et al., 2002). […] Percentage cell death was expressed as the number of pixels in the ROI above a threshold in the PI fluorescent image divided by the total number of pixels in the ROI.
OHSCs were treated with a lethal excitotoxic stimulus (5 mM L-glutamate, 3 hours) that mimics the consequences of stroke and neurodegenerative disease (Morrison et al., 2002; Sundstrom et al., 2005) (FIG. 5A). […] The effects of these compound treatments on propidium iodide (PI) uptake were analyzed, as an indicator of cell death, 24 hours following the end of glutamate treatment, in 3 defined regions of the OHSCs: the dentate gyrus (DG), the CA1 and the CA3 fields of the hippocampus.

With CCOC(=O)c1ccc(NC2CCCCC2)c(N)c1 [SRS8-28 (Fer-1), ethyl 3-amino-4-(cyclohexylamino)benzoate] the “intrinsic antioxidant capability in the DPPH assay” value [1] was “readily oxidized the stable radical”, the “specificity of death inhibition among lethal compounds” value [2] was “specifically inhibited RSL-induced death, but not cell death induced by other oxidative lethal compounds and apoptosis-inducing agents” and the ERK phosphorylation [3] was “did not inhibit ERK phosphorylation”. The “glutamate-induced cell death (PI uptake) in DG, CA1, CA3” value [4] was “attenuated significantly”.
